Tests used:
Format in all cases: cell-based
[1] = tested on: Acinetobacter baumannii isolates; experiment: MIC against CDC Acinetobacter baumannii panel (n = 41)
[2] = tested on: Gram-negative with varying susceptibility to imipenem and relebactam; experiment: MIC against CDC Imipenem/Relebactam panel (n = 28)
Description: (§1) MIC values were determined using the methodology described above, i.e., the standard broth microdilution reference method defined by CLSI.
(§2) See wwwn.cdc.gov/ARIsolateBank/Panel/PanelDetail?ID=10.

[3] = tested on: isolates identified as having novel antibiotic resistance; experiment: MIC against CDC novel antibiotic resistance panel (n = 11)
Description: as §1, §2

[4] = novel antibiotic resistance panel

MRLKMARRRYRLPRRRSRRLFSRTALRMHPRNRLRRIMRGGIRF [Chp2]
MIC50 ([1]; Actinobacter baumannii panel): 0.5 µg/mL
MIC90 ([1]; Actinobacter baumannii panel): 1 µg/mL
MIC ([1]; CDC Antibiotic-Resistant Bank No. 0273): 1 µg/mL
MIC ([1]; CDC Antibiotic-Resistant Bank No. 0274): 0.5 µg/mL
MIC ([1]; CDC Antibiotic-Resistant Bank No. 0275): 0.5 µg/mL
MIC ([1]; CDC Antibiotic-Resistant Bank No. 0276): 0.5 µg/mL
MIC ([1]; CDC Antibiotic-Resistant Bank No. 0277): 0.5 µg/mL
MIC ([1]; CDC Antibiotic-Resistant Bank No. 0278): 1 µg/mL
MIC ([1]; CDC Antibiotic-Resistant Bank No. 0279): 1 µg/mL
MIC ([1]; CDC Antibiotic-Resistant Bank No. 0280): 1 µg/mL
MIC ([1]; CDC Antibiotic-Resistant Bank No. 0281): 1 µg/mL
MIC ([1]; CDC Antibiotic-Resistant Bank No. 0282): 0.5 µg/mL
MIC ([1]; CDC Antibiotic-Resistant Bank No. 0283): 1 µg/mL
MIC ([1]; CDC Antibiotic-Resistant Bank No. 0284): 0.5 µg/mL
MIC ([1]; CDC Antibiotic-Resistant Bank No. 0285): 0.5 µg/mL
MIC ([1]; CDC Antibiotic-Resistant Bank No. 0286): 1 µg/mL
MIC ([1]; CDC Antibiotic-Resistant Bank No. 0287): 0.5 µg/mL
MIC ([1]; CDC Antibiotic-Resistant Bank No. 0288): 0.25 µg/mL
MIC ([1]; CDC Antibiotic-Resistant Bank No. 0289): 0.5 µg/mL
MIC ([1]; CDC Antibiotic-Resistant Bank No. 0290): 0.5 µg/mL
MIC ([1]; CDC Antibiotic-Resistant Bank No. 0291): 0.5 µg/mL
MIC ([1]; CDC Antibiotic-Resistant Bank No. 0292): 0.5 µg/mL
MIC ([1]; CDC Antibiotic-Resistant Bank No. 0293): 0.5 µg/mL
MIC ([1]; CDC Antibiotic-Resistant Bank No. 0294): 0.5 µg/mL
MIC ([1]; CDC Antibiotic-Resistant Bank No. 0295): 1 µg/mL
MIC ([1]; CDC Antibiotic-Resistant Bank No. 0296): 0.5 µg/mL
MIC ([1]; CDC Antibiotic-Resistant Bank No. 0297): 1 µg/mL
MIC ([1]; CDC Antibiotic-Resistant Bank No. 0298): 0.5 µg/mL
MIC ([1]; CDC Antibiotic-Resistant Bank No. 0299): 1 µg/mL
MIC ([1]; CDC Antibiotic-Resistant Bank No. 0300): 2 µg/mL
MIC ([1]; CDC Antibiotic-Resistant Bank No. 0301): 1 µg/mL
MIC ([1]; CDC Antibiotic-Resistant Bank No. 0302): 1 µg/mL
MIC ([1]; CDC Antibiotic-Resistant Bank No. 0303): 1 µg/mL
MIC ([1]; CDC Antibiotic-Resistant Bank No. 0304): 0.5 µg/mL
MIC ([1]; CDC Antibiotic-Resistant Bank No. 0305): 0.5 µg/mL
MIC ([1]; CDC Antibiotic-Resistant Bank No. 0306): 0.5 µg/mL
MIC ([1]; CDC Antibiotic-Resistant Bank No. 0307): 1 µg/mL
MIC ([1]; CDC Antibiotic-Resistant Bank No. 0308): 1 µg/mL
MIC ([1]; CDC Antibiotic-Resistant Bank No. 0309): 1 µg/mL
MIC ([1]; CDC Antibiotic-Resistant Bank No. 0310): 0.5 µg/mL
MIC ([1]; CDC Antibiotic-Resistant Bank No. 0311): 0.5 µg/mL
MIC ([1]; CDC Antibiotic-Resistant Bank No. 0312): 0.5 µg/mL
MIC ([1]; CDC Antibiotic-Resistant Bank No. 0313): 0.5 µg/mL
MIC ([2]; Bank No. 0501, Enterobacter cloacae): 0.5 µg/mL
MIC ([2]; Bank No. 0502, Enterobacter cloacae): 0.5 µg/mL
MIC ([2]; Bank No. 0504, Klebsiella pneumoniae): 0.5 µg/mL
MIC ([2]; Bank No. 0505, Klebsiella pneumoniae): 1 µg/mL
MIC ([2]; Bank No. 0506, Klebsiella pneumoniae): 1 µg/mL
MIC ([2]; Bank No. 0507, Klebsiella pneumoniae): 0.5 µg/mL
MIC ([2]; Bank No. 0508, Pseudomonas aeruginosa): 1 µg/mL
MIC ([2]; Bank No. 0509, Pseudomonas aeruginosa): 1 µg/mL
MIC ([2]; Bank No. 0510, Pseudomonas aeruginosa): 0.5 µg/mL
MIC ([2]; Bank No. 0511, Pseudomonas aeruginosa): 0.5 µg/mL
MIC ([2]; Bank No. 0512, Pseudomonas aeruginosa): 1 µg/mL
MIC ([2]; Bank No. 0513, Pseudomonas aeruginosa): 0.5 µg/mL
MIC ([2]; Bank No. 0514, Pseudomonas aeruginosa): 1 µg/mL
MIC ([2]; Bank No. 0515, Pseudomonas aeruginosa): 0.5 µg/mL
MIC ([2]; Bank No. 0516, Pseudomonas aeruginosa): 0.5 µg/mL
MIC ([2]; Bank No. 0517, Serratia marcescens): > 8 µg/mL
MIC ([2]; Bank No. 0518, Pseudomonas aeruginosa): 1 µg/mL
MIC ([2]; Bank No. 0519, Morganella morganii): ng
MIC ([2]; Bank No. 0520, Serratia marcescens): > 8 µg/mL
MIC ([2]; Bank No. 0521, Serratia marcescens): > 8 µg/mL
MIC ([2]; Bank No. 0522, Klebsiella pneumoniae): 0.5 µg/mL
MIC ([2]; Bank No. 0523, Klebsiella pneumoniae): 0.5 µg/mL
MIC ([2]; Bank No. 0524, Klebsiella pneumoniae): 1 µg/mL
MIC ([2]; Bank No. 0525, Klebsiella pneumoniae): 1 µg/mL
MIC ([2]; Bank No. 0526, Pseudomonas aeruginosa): 2 µg/mL
MIC ([2]; Bank No. 0527, Pseudomonas aeruginosa): 1 µg/mL
MIC ([2]; Bank No. 0528, Pseudomonas aeruginosa): 1 µg/mL
MIC ([2]; Bank No. 0529, Pseudomonas aeruginosa): 0.5 µg/mL
MIC50 ([2]; Imipenem/Relebactam panel): 0.5 µg/mL
MIC90 ([2]; Imipenem/Relebactam panel): 1 µg/mL
MIC ([3]; Bank No. 0346, Escherichia coli): 0.25 µg/mL
MIC ([3]; Bank No. 0347, Klebsiella pneumoniae): 0.5 µg/mL
MIC ([3]; Bank No. 0348, Escherichia coli): 0.5 µg/mL
MIC ([3]; Bank No. 0349, Escherichia coli): 1 µg/mL
MIC ([3]; Bank No. 0350, Escherichia coli): 1 µg/mL
MIC ([3]; Bank No. 0493, Escherichia coli): 0.5 µg/mL
MIC ([3]; Bank No. 0494, Escherichia coli): 1 µg/mL
MIC ([3]; Bank No. 0495, Escherichia coli): 1 µg/mL
MIC ([3]; Bank No. 0497, Klebsiella pneumoniae): 0.5 µg/mL
MIC ([3]; Bank No. 0538, Escherichia coli): 1 µg/mL
MIC ([3]; Bank No. 0637, Citrobacter freundi): 1 µg/mL
MIC50 [3, 4]: 0.5 µg/mL
MIC90 [3, 4]: 1 µg/mL

— patent US20220401514A1, “ANTIMICROBIAL, BACTERIOPHAGE-DERIVED POLYPEPTIDES AND THEIR USE AGAINST GRAM-NEGATIVE AND ACID-FAST BACTERIA” (CONTRAFECT CORPORATION, priority 2019, published 2022)
